Consider 15 compounds from patent US20260085034A1, “N-(BENZHYDRYL)CYCLOALKYLCARBOXAMIDE DERIVATIVES AS INHIBITORS OF GLYCOGEN SYNTHASE 1 (GYS1) AND METHODS OF USE THEREOF” (Maze Therapeutics, Inc., priority 2022, published 2026).

Test [1] has as its target T1, recombinant hGYS1/GN1 protein (Homo sapiens, UniProt P13807).
T1 sequence (P13807 1-737): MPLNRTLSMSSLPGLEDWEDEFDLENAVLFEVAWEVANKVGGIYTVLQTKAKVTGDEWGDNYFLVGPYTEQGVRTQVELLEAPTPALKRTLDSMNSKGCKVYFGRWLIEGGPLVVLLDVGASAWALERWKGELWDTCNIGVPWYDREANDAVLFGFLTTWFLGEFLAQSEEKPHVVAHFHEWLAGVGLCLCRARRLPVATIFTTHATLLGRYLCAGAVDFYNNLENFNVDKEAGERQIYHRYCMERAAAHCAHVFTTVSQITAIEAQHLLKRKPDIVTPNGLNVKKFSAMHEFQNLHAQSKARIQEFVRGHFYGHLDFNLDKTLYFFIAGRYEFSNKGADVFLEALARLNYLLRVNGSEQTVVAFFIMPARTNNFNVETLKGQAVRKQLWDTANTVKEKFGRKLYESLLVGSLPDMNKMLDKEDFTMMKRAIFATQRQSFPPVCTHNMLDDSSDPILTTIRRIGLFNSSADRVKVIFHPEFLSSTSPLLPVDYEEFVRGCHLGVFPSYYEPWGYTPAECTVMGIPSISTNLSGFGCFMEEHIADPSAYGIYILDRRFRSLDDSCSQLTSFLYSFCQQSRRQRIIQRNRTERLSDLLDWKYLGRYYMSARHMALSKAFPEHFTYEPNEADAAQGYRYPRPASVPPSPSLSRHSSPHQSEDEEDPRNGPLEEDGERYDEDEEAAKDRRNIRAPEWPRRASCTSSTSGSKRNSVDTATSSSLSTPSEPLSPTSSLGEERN
T1 sequence (P46976 1-350 partner): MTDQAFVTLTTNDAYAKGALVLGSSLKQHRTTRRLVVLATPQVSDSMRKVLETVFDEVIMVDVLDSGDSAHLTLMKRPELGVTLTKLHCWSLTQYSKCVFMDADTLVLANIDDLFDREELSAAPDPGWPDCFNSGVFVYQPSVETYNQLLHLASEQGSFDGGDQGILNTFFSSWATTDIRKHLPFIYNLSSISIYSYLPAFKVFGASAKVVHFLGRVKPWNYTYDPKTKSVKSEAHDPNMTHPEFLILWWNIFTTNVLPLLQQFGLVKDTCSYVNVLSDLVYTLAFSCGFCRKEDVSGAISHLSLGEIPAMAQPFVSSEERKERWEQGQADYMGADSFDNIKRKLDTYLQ
Nature of the test: GYS1 coupled enzyme assay (PK/LDH). Type of test: biochemical. To be noted: geometric mean of at least 2 assay runs; NADH absorbance at 340 nm. The source says: (§1) The GYS1 coupled enzyme assay is a kinetic biochemical assay that indirectly quantifies the rate of glycogen synthesis by coupling the conversion of GYS1 substrate UDP-glucose into UDP with downstream enzymatic reactions. UDP is released from UDP-glucose as glucose monomers are linked into the growing glycogen strand by GYS1. The coupled assay then proceeds with pyruvate kinase utilizing UDP and phospho(enol)pyruvate (PEP) to form pyruvate. Lactate dehydrogenase then converts pyruvate and NADH into lactate and NAD+. Oxidation of NADH to NAD+ can be measured continuously with a plate reader by quantifying the decrease in NADH absorbance at 340 nm over time.
Compounds that inhibit the hGYS1 enzyme and, subsequently, the downstream conversion of NADH to NAD+, were tested using assay ready plates (black, clear bottom 384 well plates) in a final DMSO reaction volume of 2.5% DMSO. The Assay Buffer contained 50 mM Tris pH 7.5, 2 mM MgCl2, and 100 mM KCl. Fresh stocks of BSA at a final concentration of 0.02% and TCEP at 1 mM were added before splitting buffer into hGYS1 buffer and substrate buffer. To the hGYS1 buffer, rabbit liver glycogen was added at a final concentration of 0.2% glycogen. Glucose-6-Phosphate was added at 1 mM, recombinant hGYS1/GN1 protein was added at 50 nM to the substrate buffer, phosphoenolpyruvate (PEP) was added at 2 mM, UDP-Glucose was added at 0.8 mM, NADH) was added at 0.6 mM, and Pyruvate Kinase/Lactate Dehydrogenase was added at 20 units/mL. The reaction was initiated by mixing hGYS1 buffer and substrate buffer at a 1:1 ratio. Both buffers were plated using a liquid dispensing device with hGYS1 buffer plated first followed by the substrate buffer. Plates were spun briefly to eliminate air bubbles and are immediately read in continuous mode at an absorbance of 340 nm, for 10 time points in one-minute increments, for a total of 10 minutes. The slope from these 10 time points was normalized to the positive and negative control wells. The duplicate % inhibition values are then averaged and fit to a Hill equation for dose response according to the Levenberg-Marquardt algorithm with the Hill equation maximum set to 100 and the minimum set to 0.
The results are shown in Table 3 below, which reports the IC50 of each compound. Unless otherwise specified, IC50 values are reported as the geometric mean of at least 2 assay runs on separate days. Each run represents the average of a technical replicate, where each compound was assayed twice in the same plate. As shown in the table below, the compounds of the present invention are potent inhibitors of human GYS1.

Test [2] concerns the target T2, recombinant hGYS2/GN1 protein (Homo sapiens, UniProt P54840).
T2 sequence (P54840 1-703): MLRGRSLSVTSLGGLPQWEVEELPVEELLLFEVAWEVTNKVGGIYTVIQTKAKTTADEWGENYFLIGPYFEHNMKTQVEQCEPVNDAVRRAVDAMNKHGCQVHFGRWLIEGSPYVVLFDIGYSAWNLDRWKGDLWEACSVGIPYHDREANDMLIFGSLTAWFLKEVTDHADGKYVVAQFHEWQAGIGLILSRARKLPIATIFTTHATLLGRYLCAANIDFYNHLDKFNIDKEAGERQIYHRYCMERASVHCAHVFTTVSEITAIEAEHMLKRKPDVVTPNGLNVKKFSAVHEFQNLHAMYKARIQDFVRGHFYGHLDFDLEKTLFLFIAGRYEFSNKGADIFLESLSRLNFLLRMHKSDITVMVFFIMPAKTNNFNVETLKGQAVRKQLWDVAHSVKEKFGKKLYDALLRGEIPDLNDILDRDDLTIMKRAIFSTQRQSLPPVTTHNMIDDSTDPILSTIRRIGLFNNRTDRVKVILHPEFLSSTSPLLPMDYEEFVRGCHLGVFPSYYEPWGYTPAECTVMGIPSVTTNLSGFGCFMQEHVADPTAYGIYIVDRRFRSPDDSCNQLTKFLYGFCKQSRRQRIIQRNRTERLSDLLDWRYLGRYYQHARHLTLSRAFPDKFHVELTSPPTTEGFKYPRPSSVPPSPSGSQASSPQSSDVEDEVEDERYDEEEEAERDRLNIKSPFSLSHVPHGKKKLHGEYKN
T2 sequence (P46976 1-350 partner): T1 sequence (P46976 1-350 partner)
Nature of the test: GYS2 coupled enzyme assay (PK/LDH). Type of test: biochemical. To be noted: geometric mean of at least 2 assay runs; NADH absorbance at 340 nm.
Source text: as §1, with “GYS2” for “GYS1”, “GYS2.” for “GYS1.”
Compounds that inhibit the hGYS2 enzyme and, subsequently, the downstream conversion of NADH to NAD+, were tested using assay ready plates (black, clear bottom 384 well plates) in a final DMSO reaction volume of 2.5% DMSO. The Assay Buffer contained 50 mM Tris pH 7.5, 2 mM MgCl2, and 100 mM KCl. Fresh stocks of BSA at a final concentration of 0.02% and TCEP 1 mM were added before splitting buffer into hGYS2 buffer and substrate buffer. To the hGYS2 buffer, rabbit liver glycogen was added at a final concentration of 0.2% glycogen. Glucose-6-Phosphate was added at 2 mM, recombinant hGYS2/GN1 protein was added at 200 nM to the substrate buffer, phosphoenolpyruvate (PEP) was added at 2 mM, UDP-Glucose was added at 2 mM, NADH was added at 0.6 mM, and Pyruvate Kinase/Lactate Dehydrogenase was added at 20 units/mL. The reaction was initiated by mixing hGYS2 buffer and substrate buffer at a 1:1 ratio. Both buffers were plated using a liquid dispensing device with hGYS2 buffer plated first followed by the substrate buffer. Plates were spun briefly to eliminate air bubbles and are immediately read in continuous mode at an absorbance of 340 nm, for 10 time points in one-minute increments, for a total of 10 minutes. The slope from these 10 time points was normalized to the positive and negative control wells. The duplicate % inhibition values are then averaged and fit to a Hill equation for dose response according to the Levenberg-Marquardt algorithm with the Hill equation maximum set to 100 and the minimum set to 0.
The results are shown in Table 5 below, which reports the IC50 of each compound. Unless otherwise specified, IC50 values are reported as the geometric mean of at least 2 assay runs on separate days. As shown in the table below, the compounds of the present invention are not potent inhibitors of human GYS2. […] Each run represents the average of a technical replicate, where each compound was assayed twice in the same plate.

Bounds are passed on as bounds.

For the compound `CC(C)c1ccc([C@@H](NC(=O)[C@H]2C[C@@H]2F)c2ccccc2)cc1` [compound 36, (1R,2S)-2-fluoro-N-((S)-(4-isopropylphenyl)(phenyl)methyl)cyclopropane-1-carboxamide], the values for the IC50 in test [1] and in test [2] were 418 nM and more than 100 µM, respectively.
The like results for `CC(=O)N1CC(C(=O)Nc2ccccc2[C@H](NC(=O)C2CC2)c2ccc(C(C)C)cc2)C1` [compound 37, (R)-1-acetyl-N-(2-(cyclopropanecarboxamido(4-isopropylphenyl)methyl)phenyl)azetidine-3-carboxamide] were, in that order, 1060 nM and more than 100 µM.
Taken in the same sequence, the figures for `COc1ccccc1[C@H](NC(=O)C1CC1)c1ccc(C(C)C)cc1` (single isomer, unassigned) [compound 71] were 397 nM and more than 100 µM.
Taken in the same sequence, the figures for `CC(C)c1ccc([C@@H](NC(=O)C2CC2)c2cccc3[nH]c(=O)oc23)cc1` (single isomer, unassigned) [compound 15] were 883 nM and more than 100 µM.
Turning to `COc1cccc([C@H](NC(=O)C2CC2)c2ccc(C(C)C)cc2)c1` [compound 70, (R)-N-((4-isopropylphenyl)(3-methoxyphenyl)methyl)cyclopropanecarboxamide], the IC50 in test [1] was 786 nM; in test [2], more than 100 µM.
Taken in the same sequence, the figures for `CC(C)c1ccc([C@@H](NC(=O)C2CC2)c2ccn[nH]2)cc1` [compound 56, (R)-N-((4-isopropylphenyl)(1H-pyrazol-5-yl)methyl)cyclopropanecarboxamide] were 372 nM and more than 100 µM.
The like results for `Cc1cccc([C@H](NC(=O)C2CC2)c2ccc(C(C)C)cc2)c1` (single isomer, unassigned) [compound 66] were, in that order, 2100 nM and more than 100 µM.
The like results for `CC(C)c1ccc([C@@H](NC(=O)C2CC2)c2cccc(O)c2)cc1` [compound 62, (R)-N-((3-hydroxyphenyl)(4-isopropylphenyl)methyl)cyclopropanecarboxamide] were, in that order, 376 nM and more than 100 µM.
Consider `NC(=O)Nc1ccccc1[C@H](NC(=O)C1CC1)c1ccc(C2CCC2)cc1` (single isomer, unassigned) [compound 18], for which the IC50 in test [1] is 964 nM; in test [2], more than 100 µM.
In the case of `COCCN1CCC(C(=O)Nc2ccccc2[C@H](NC(=O)[C@H]2C[C@@H]2F)c2ccc(C(C)C)cc2)CC1` [compound 13, N-(2-((R)-((1R,2S)-2-fluorocyclopropane-1-carboxamido)(4-isopropylphenyl)methyl)phenyl)-1-(2-methoxyethyl)piperidine-4-carboxamide], the IC50 in test [1] was 1040 nM; in test [2] it was more than 100 µM.
The like results for `CC(C)c1ccc([C@@H](NC(=O)C2CC2)c2ccccc2NC(=O)C2CC2)cc1` (single isomer, unassigned) [compound 61] were, in that order, 710 nM and more than 100 µM.
On to `CC(C)c1ccc([C@@H](NC(=O)C2CC2)c2ccccc2NC(N)=O)cc1` [compound 54, (R)-N-((4-isopropylphenyl)(2-ureidophenyl)methyl)cyclopropanecarboxamide], for which the IC50 in test [1] is 346 nM; in test [2] it was more than 100 µM.
Taken in the same sequence, the figures for `COc1ccc([C@H](NC(=O)C2CC2)c2ccc(C(C)C)cc2)cc1` [compound 72, (R)-N-((4-isopropylphenyl)(4-methoxyphenyl)methyl)cyclopropanecarboxamide] were 2680 nM and more than 100 µM.
Take `CC(C)c1ccc([C@@H](NC(=O)C2CC2)c2ccccc2O)cc1` [compound 67, (R)-N-((2-hydroxyphenyl)(4-isopropylphenyl)methyl)cyclopropanecarboxamide]: the IC50 in test [1] is 293 nM; in test [2], more than 100 µM.
Taken in the same sequence, the figures for `CC(C)c1ccc([C@@H](NC(=O)C2CC2)c2ccccc2)cc1F` (single isomer, unassigned) [compound 52] were 591 nM and more than 100 µM.
